Data taken from the SangsterLogP compilation.

Row | logP | SMILES
1 | 7.21 | Clc1cc(Cl)c(Cl)c(-c2cc(Cl)c(Cl)c(Cl)c2Cl)c1
2 | 6.43 | Clc1cc(Cl)cc(-c2c(Cl)cc(Cl)cc2Cl)c1
3 | 5.72 | Clc1ccc(-c2cccc(Cl)c2Cl)c(Cl)c1
4 | 6.04 | Clc1cc(Cl)c(-c2cccc(Cl)c2Cl)c(Cl)c1
5 | 6.73 | Clc1ccc(-c2c(Cl)c(Cl)cc(Cl)c2Cl)c(Cl)c1Cl
6 | 6.41 | Clc1ccc(Cl)c(-c2c(Cl)c(Cl)cc(Cl)c2Cl)c1Cl
7 | 6.1 | Clc1ccc(-c2cc(Cl)cc(Cl)c2Cl)cc1
8 | 5.79 | Clc1ccccc1-c1ccc(Cl)c(Cl)c1Cl
9 | 5.94 | Clc1ccc(-c2ccc(Cl)cc2Cl)c(Cl)c1
10 | 6.32 | Clc1ccc(-c2cc(Cl)cc(Cl)c2Cl)c(Cl)c1
11 | 6.11 | Clc1cc(Cl)c(-c2cc(Cl)ccc2Cl)c(Cl)c1
12 | 7.35 | Clc1ccc(-c2c(Cl)c(Cl)c(Cl)c(Cl)c2Cl)c(Cl)c1Cl
13 | 6.63 | Clc1cc(-c2c(Cl)ccc(Cl)c2Cl)cc(Cl)c1Cl
14 | 5.76 | Clc1ccc(-c2c(Cl)cccc2Cl)cc1Cl
15 | 6.32 | Clc1ccc(Cl)c(-c2cc(Cl)cc(Cl)c2Cl)c1
16 | 6.92 | Clc1cc(Cl)c(-c2cc(Cl)c(Cl)c(Cl)c2Cl)c(Cl)c1
17 | 4.84 | Clc1ccccc1-c1c(Cl)ccc(Cl)c1Cl
18 | 6.45 | Clc1ccc(Cl)c(-c2c(Cl)cc(Cl)c(Cl)c2Cl)c1
19 | 6.45 | Clc1cc(Cl)cc(-c2c(Cl)ccc(Cl)c2Cl)c1
20 | 6.44 | Clc1ccc(-c2c(Cl)cc(Cl)c(Cl)c2Cl)cc1
21 | 6.76 | Clc1cccc(-c2cc(Cl)c(Cl)c(Cl)c2Cl)c1Cl
22 | 6.41 | Clc1cccc(-c2c(Cl)c(Cl)cc(Cl)c2Cl)c1
23 | 6.78 | Clc1cc(Cl)c(-c2c(Cl)c(Cl)cc(Cl)c2Cl)c(Cl)c1

Row | logP | SMILES
24 | 5.6 | Clc1ccc(-c2c(Cl)cccc2Cl)c(Cl)c1Cl
25 | 6.92 | Clc1cc(Cl)c(Cl)c(-c2c(Cl)cc(Cl)c(Cl)c2Cl)c1
26 | 5.71 | Clc1ccc(-c2ccccc2Cl)cc1Cl
27 | 7.05 | Clc1cc(Cl)c(-c2c(Cl)cc(Cl)c(Cl)c2Cl)cc1Cl
28 | 6.23 | Clc1ccc(Cl)c(-c2ccc(Cl)c(Cl)c2Cl)c1
29 | 6.58 | Clc1cc(Cl)c(-c2ccc(Cl)c(Cl)c2Cl)c(Cl)c1
30 | 6.03 | Clc1cccc(-c2c(Cl)cc(Cl)cc2Cl)c1
31 | 6.32 | Clc1cccc(-c2cc(Cl)c(Cl)cc2Cl)c1
32 | 4.84 | Clc1cccc(-c2c(Cl)cccc2Cl)c1Cl
33 | 5.98 | Clc1ccccc1-c1cc(Cl)c(Cl)c(Cl)c1
34 | 6.06 | Clc1ccccc1-c1c(Cl)c(Cl)cc(Cl)c1Cl
35 | 5.85 | Clc1ccc(-c2cccc(Cl)c2Cl)cc1Cl
36 | 5.71 | Clc1cc(Cl)cc(-c2ccccc2Cl)c1
37 | 5.15 | Clc1ccc(-c2cccc(Cl)c2)cc1
38 | 5.81 | Clc1cccc(-c2cc(Cl)cc(Cl)c2)c1
39 | 6.85 | Clc1cc(Cl)c(Cl)c(-c2c(Cl)c(Cl)cc(Cl)c2Cl)c1
40 | 6.78 | Clc1ccc(-c2c(Cl)c(Cl)cc(Cl)c2Cl)cc1Cl
41 | 7.08 | Clc1ccc(-c2c(Cl)c(Cl)c(Cl)c(Cl)c2Cl)cc1Cl
42 | 6.23 | Clc1ccc(-c2c(Cl)cc(Cl)cc2Cl)c(Cl)c1
43 | 5.51 | Clc1ccc(-c2c(Cl)cccc2Cl)c(Cl)c1
44 | 6.18 | Clc1ccc(-c2ccc(Cl)c(Cl)c2Cl)c(Cl)c1
45 | 6.85 | Clc1cc(-c2c(Cl)ccc(Cl)c2Cl)c(Cl)c(Cl)c1Cl
46 | 5.55 | Clc1ccc(Cl)c(-c2c(Cl)cccc2Cl)c1

Second part, the compound before the results:

Row | SMILES | logP
47 | Clc1cc(-c2c(Cl)c(Cl)cc(Cl)c2Cl)c(Cl)c(Cl)c1Cl | 7.35
48 | Clc1cc(Cl)cc(-c2cc(Cl)cc(Cl)c2)c1 | 6.6
49 | Clc1cc(Cl)c(Cl)c(-c2c(Cl)c(Cl)cc(Cl)c2Cl)c1Cl | 7.16
50 | Clc1cc(Cl)c(-c2c(Cl)c(Cl)cc(Cl)c2Cl)cc1Cl | 6.92
51 | Clc1ccc(-c2ccccc2)c(Cl)c1Cl | 5.68
52 | Clc1ccc(-c2c(Cl)c(Cl)c(Cl)c(Cl)c2Cl)c(Cl)c1 | 7.13
53 | Clc1ccc(-c2c(Cl)c(Cl)cc(Cl)c2Cl)cc1 | 6.39
54 | Clc1ccc(-c2ccccc2Cl)cc1 | 5.09
55 | Clc1ccc(-c2ccc(Cl)c(Cl)c2)c(Cl)c1 | 5.98
56 | Clc1cccc(-c2cccc(Cl)c2Cl)c1Cl | 5.67
57 | Clc1cccc(-c2ccccc2)c1Cl | 4.99
58 | Clc1ccc(-c2ccccc2)cc1 | 4.63
59 | Clc1cccc(-c2cc(Cl)ccc2Cl)c1 | 5.65
60 | Clc1cc(Cl)c(Cl)c(-c2c(Cl)c(Cl)c(Cl)c(Cl)c2Cl)c1 | 7.43
61 | Clc1ccc(Cl)c(-c2c(Cl)c(Cl)c(Cl)c(Cl)c2Cl)c1Cl | 7.21
62 | Clc1cc(Cl)c(-c2ccccc2Cl)c(Cl)c1 | 5.75
63 | Clc1cc(Cl)c(Cl)c(-c2c(Cl)c(Cl)c(Cl)c(Cl)c2Cl)c1Cl | 7.77
64 | Clc1ccc(-c2ccc(Cl)c(Cl)c2)cc1 | 5.78
65 | Clc1ccc(-c2c(Cl)cc(Cl)c(Cl)c2Cl)c(Cl)c1Cl | 6.99

Row | SMILES | logP
66 | Clc1ccccc1-c1cc(Cl)c(Cl)c(Cl)c1Cl | 6.39
67 | Clc1cc(Cl)c(-c2c(Cl)cc(Cl)c(Cl)c2Cl)c(Cl)c1Cl | 7.21
68 | Clc1ccc(-c2c(Cl)cccc2Cl)cc1 | 5.24
69 | Clc1ccc(Cl)c(-c2ccccc2)c1 | 5.1
70 | Clc1ccc(-c2c(Cl)cc(Cl)cc2Cl)cc1 | 6.03
71 | Clc1cc(-c2c(Cl)c(Cl)c(Cl)c(Cl)c2Cl)cc(Cl)c1Cl | 7.62
72 | Clc1ccc(Cl)c(-c2cc(Cl)c(Cl)c(Cl)c2Cl)c1 | 6.75
73 | Clc1ccc(-c2c(Cl)cc(Cl)c(Cl)c2Cl)cc1Cl | 6.78
74 | Clc1ccc(-c2cc(Cl)c(Cl)cc2Cl)c(Cl)c1 | 6.41
75 | Clc1cccc(-c2cc(Cl)c(Cl)c(Cl)c2Cl)c1 | 6.92
76 | Clc1cc(-c2c(Cl)c(Cl)c(Cl)c(Cl)c2Cl)c(Cl)c(Cl)c1Cl | 7.94
77 | Clc1cccc(Cl)c1-c1c(Cl)cccc1Cl | 5.24
78 | Clc1cc(-c2c(Cl)c(Cl)cc(Cl)c2Cl)cc(Cl)c1Cl | 7.21
79 | Clc1cc(Cl)c(-c2c(Cl)c(Cl)c(Cl)c(Cl)c2Cl)c(Cl)c1 | 7.48
80 | Clc1ccc(Cl)c(-c2c(Cl)c(Cl)c(Cl)c(Cl)c2Cl)c1 | 6.99
81 | Clc1cccc(-c2ccc(Cl)cc2Cl)c1 | 5.54
82 | Clc1ccc(Cl)c(-c2ccccc2Cl)c1 | 5.34
83 | Clc1ccc(-c2cc(Cl)c(Cl)cc2Cl)cc1 | 6.1
84 | Clc1cccc(-c2cccc(Cl)c2)c1 | 5.27

Row | SMILES | logP
85 | Clc1cc(Cl)c(-c2c(Cl)c(Cl)c(Cl)c(Cl)c2Cl)cc1Cl | 7.49
86 | Clc1ccc(-c2cc(Cl)ccc2Cl)c(Cl)c1 | 5.87
87 | Clc1cc(Cl)cc(-c2ccccc2)c1 | 5.41
88 | Clc1ccccc1-c1ccccc1 | 4.42
89 | Clc1cc(-c2c(Cl)cc(Cl)c(Cl)c2Cl)cc(Cl)c1Cl | 7.21
90 | Clc1ccc(-c2ccccc2Cl)c(Cl)c1 | 5.39
91 | Clc1ccc(-c2ccc(Cl)cc2)cc1 | 5.23
92 | Clc1ccccc1-c1c(Cl)cccc1Cl | 5.04
93 | Clc1cc(-c2c(Cl)cc(Cl)c(Cl)c2Cl)c(Cl)c(Cl)c1Cl | 7.43
94 | Clc1cc(Cl)c(-c2ccccc2Cl)cc1Cl | 5.69
95 | Clc1ccc(Cl)c(-c2cc(Cl)c(Cl)cc2Cl)c1 | 6.3
96 | Clc1cc(Cl)cc(-c2c(Cl)c(Cl)c(Cl)c(Cl)c2Cl)c1 | 7.21
97 | Clc1ccc(-c2ccccc2)c(Cl)c1 | 5.16
98 | Clc1ccc(-c2c(Cl)ccc(Cl)c2Cl)cc1 | 5.76
99 | Clc1cc(Cl)c(-c2ccc(Cl)c(Cl)c2Cl)cc1Cl | 6.72
100 | Clc1ccc(Cl)c(-c2ccccc2)c1Cl | 5.44
101 | Clc1cc(-c2cc(Cl)c(Cl)c(Cl)c2Cl)c(Cl)c(Cl)c1Cl | 7.62
102 | Clc1cc(Cl)c(-c2ccc(Cl)c(Cl)c2)c(Cl)c1 | 6.4
